Measurements: the supplement of paper PMC10307832

What was measured:
Test in all cases: relative viability (nuclei count vs DMSO), 5 days (fraction); higher = more cells survive
Cediranib + Navitoclax = compound: COc1cc2c(Oc3ccc4[nH]c(C)cc4c3F)ncnc2cc1OCCCN1CCCC1 [Cediranib] + CC1(C)CCC(c2ccc(Cl)cc2)=C(CN2CCN(c3ccc(C(=O)NS(=O)(=O)c4ccc(N[C@H](CCN5CCOCC5)CSc5ccccc5)c(S(=O)(=O)C(F)(F)F)c4)cc3)CC2)C1 [Navitoclax] (partner 0.5 µM)
How it was run: (§1)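 Lung cancer cell lines in 1536-well plates got either a single drug or a fixed anchor-drug dose together with five library-drug doses (not always all listed) in √10 steps, by pin tool, on the day after seeding. Nuclei were counted after 5 days, and relative viability is the treated-to-vehicle ratio of nuclei counts. Values are medians of duplicate plates.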

Decitabine + Palbociclib = compound: Nc1ncn([C@H]2C[C@H](O)[C@@H](CO)O2)c(=O)n1 [Decitabine] + CC(=O)c1c(C)c2cnc(Nc3ccc(N4CCNCC4)cn3)nc2n(C2CCCC2)c1=O [Palbociclib] (partner 0.5 µM)
How it was run: as §1

[1] = compound: O=C(C[C@H]1NCCC[C@@H]1O)Cn1cnc2cc(Br)c(Cl)cc2c1=O (racemic) [Halofuginone] + CC(=O)Nc1cccc(-n2c(=O)n(C3CC3)c(=O)c3c(Nc4ccc(I)cc4F)n(C)c(=O)c(C)c32)c1 [Trametinib] (partner 0.02 µM)
How it was run: as §1

[2] = compound: O=C(C[C@H]1NCCC[C@@H]1O)Cn1cnc2cc(Br)c(Cl)cc2c1=O (racemic) [Halofuginone] + CCNC(=O)c1noc(-c2cc(C(C)C)c(O)cc2O)c1-c1ccc(CN2CCOCC2)cc1 [Luminespib] (partner 0.01 µM)
How it was run: as §1

UMC-11
relative viability (Cediranib + Navitoclax; first compound 0.04 µM): 0.328 | relative viability (Cediranib + Navitoclax; first compound 0.1265 µM): 0.293 | relative viability (Cediranib + Navitoclax; first compound 0.4 µM): 0.322 | relative viability (Cediranib + Navitoclax; first compound 1.265 µM): 0.321 | relative viability (Cediranib + Navitoclax; first compound 4 µM): 0.359 | relative viability (Decitabine + Palbociclib; first compound 0.04 µM): 0.344 | relative viability (Decitabine + Palbociclib; first compound 0.1265 µM): 0.276 | relative viability (Decitabine + Palbociclib; first compound 0.4 µM): 0.313 | relative viability (Decitabine + Palbociclib; first compound 1.265 µM): 0.283 | relative viability (Decitabine + Palbociclib; first compound 4 µM): 0.285 | relative viability ([1]; first compound 0.001 µM): 0.8 | relative viability ([1]; first compound 0.003162 µM): 0.791 | relative viability ([1]; first compound 0.01 µM): 0.782 | relative viability ([1]; first compound 0.03162 µM): 0.603 | relative viability ([1]; first compound 0.1 µM): 0.456 | relative viability ([2]; first compound 0.001 µM): 1.08 | relative viability ([2]; first compound 0.003162 µM): 1.05 | relative viability ([2]; first compound 0.01 µM): 1.02 | relative viability ([2]; first compound 0.03162 µM): 0.703 | relative viability ([2]; first compound 0.1 µM): 0.412
